# Laboratory results published in paper PMC4806491, “The milk-derived fusion peptide, ACFP, suppresses the growth of primary human ovarian cancer cells by regulating apoptotic gene expression and signaling pathways” (BMC Cancer, 2016).
# “Also recorded” adds a separate entry of the source. Positions of bridges follow the written chain, without caps; N, C: chain ends. Residues, ends and D or L forms follow the SMILES beside them.
# Experiments:
# [1] = tested on: primary ovarian cancer cells; assay: Western blot of Bcl-xl, Bax, Akt, Caspase-3, CDC25C and CyclinB1 proteins; assay type: cell-based, human; settings: 48 h
# Experimental: Proteins were isolated from primary ovarian cancer cells harvested after ACFP treatment, separated by SDS-PAGE and transferred to PVDF membrane using the standard protocol. After blocking with 5 % (w/v) dry skim milk, membranes were incubated with primary antibodies (mouse monoclonal Bcl-xl, Bax, Akt, Caspase-3, CDC25C, CyclinB1 and β-Actin antibodies, 1:1000 dilution) according to the manufacturer’s instructions and later incubated with a horseradish peroxidase conjugated secondary antibody (goat anti-mouse IgG, 1:8000 dilution). The proteins were detected with the enhanced chemiluminescence (ECL) system followed by exposure to X-ray film. The β-Actin was used as a loading control. Two independent experiments were performed. Digital images were captured by Gel DocTM gel documentation system (Bio-Rad, USA) and intensities were quantified using Quantity-One software version 4.62 (Bio-Rad, USA).
# stability in pH 7 water = assay type: physicochemical; settings: n=3, Figure S2
# [2] = tested on: normal ovarian glandular epithelium cells (NOGECs); assay: WST-1 viability assay, general toxicity; assay type: cell-based, human; settings: WST-1, compared with paclitaxel, Fig. 3b, cells from 7 patients
# Experimental: Fresh primary ovarian tumor tissues that were assessed and classified as serous ovarian adenocarcinoma (III-IV grade) according to WHO criteria were collected from 53 ovarian cancer patients who underwent initial debulking surgery at the first affiliated hospital of Anhui Medical University between June 2012 and June 2014. All patients had not received adjuvant therapies, such as chemotherapy or radiotherapy, prior to surgery. For comparison, normal ovarian glandular epithelium cells (NOGECs) were cultured from fresh primary normal ovarian tissues harvested from 7 patients with uterine fibromas, which were confirmed as negative for any neoplastic disease by pathological examination. […] To determine purity, cells were analyzed using immunofluorescence of cytokeratin 7 (for ovarian cancer cells) or cytokeratin 19 (for normal ovarian epithelium cells).
# Primary ovarian cancer cells were seeded into 96-well plates in sextuplicate at a starting density of 5 × 10^3 cells/well and incubated with ACFP at the concentrations: 0 (as control), 5 × 10^−6, 5 × 10^−5, 5 × 10^−4, 5 × 10^−3, 5 × 10^−2, 5 × 10^−1 and 5 g/L for 24, 48 and 72 h, respectively. […] Cell viability was later measured using the WST-1 (water-soluble tetrazolium 1) cell viability and cytotoxicity assay kit (Beyotime, Haimen, China) according to the manufacturer’s instructions. […]
smiles,measurement,setting,value
CC[C@H](C)[C@@H]1NC(=O)[C@H](CO)NC(=O)[C@@H]2CCCN2C(=O)[C@H](C)NC(=O)CNC(=O)[C@H](CC(C)C)NC(=O)[C@H](CCCCN)NC(=O)[C@H](CCCCN)NC(=O)[C@H](CCSC)NC(=O)[C@H](CCCNC(=N)N)NC(=O)[C@H](Cc2c[nH]c3ccccc23)NC(=O)[C@H](CCC(N)=O)NC(=O)[C@H](Cc2c[nH]c3ccccc23)NC(=O)[C@H](CCCNC(=N)N)NC(=O)[C@H](CCCNC(=N)N)NC(=O)[C@@H](NC(=O)[C@H](CCCCN)NC(=O)[C@@H](N)Cc2ccccc2)CSSC[C@@H](C(=O)N[C@H](C(=O)N[C@@H](CCCNC(=N)N)C(=O)N[C@@H](CCCNC(=N)N)C(=O)N[C@@H](C)C(=O)N[C@@H](Cc2ccccc2)C(=O)NCC(=O)NCC(=O)NCC(=O)NCC(=O)N[C@@H](CO)C(=O)N2CCC[C@H]2C(=O)NCC(=O)N2CCC[C@H]2C(=O)N[C@H](C(=O)N2CCC[C@H]2C(=O)N[C@@H](CC(N)=O)C(=O)O)[C@@H](C)CC)C(C)C)NC(=O)[C@H]([C@@H](C)O)NC1=O [ACFP] (H-FKCRRWQWRMKKLGAPSITCVRRAFGGGGSPGPIPN-OH; disulfide 3-20; N-terminus and C-terminus assumed),protein levels of Bax and Caspase-3,"[1]; different concentrations, compared to control-treated group",elevated
same,"protein levels of Bcl-xl, Akt, CDC25C and CyclinB1",[1]; increasing drug concentration,gradually decreased
same,stability,stability in pH 7 water,very stable; also recorded: good stability
same,cytotoxicity toward normal primary ovarian cells,[2],little or no cytotoxicity
